Data published in ChEMBL document CHEMBL5241109, “Roles and drug development of METTL3 (methyltransferase-like 3) in anti-tumor therapy” (Eur J Med Chem, 2022).

Legend:
[1] = molecular target: T1, N6-adenosine-methyltransferase catalytic subunit (Homo sapiens, UniProt Q86U44); assay: Inhibition of METTL3 (unknown origin)
[2] = Apparent permeability across apical to basolateral side in human Caco-2 cells; assay type: ADME, cell-based
[3] = Apparent permeability across basolateral to apical side in human Caco-2 cells; assay type: ADME, cell-based
[4] = Efflux ratio of apparent permeability across basolateral to apical side over apical to basolateral side in human Caco-2 cells; assay type: ADME, cell-based
[5] = molecular target: T1, N6-adenosine-methyltransferase catalytic subunit; assay: Inhibition of METTL3 (unknown origin) assessed as remaining activity at 500 uM relative to control

T1 sequence (Q86U44 whole entry): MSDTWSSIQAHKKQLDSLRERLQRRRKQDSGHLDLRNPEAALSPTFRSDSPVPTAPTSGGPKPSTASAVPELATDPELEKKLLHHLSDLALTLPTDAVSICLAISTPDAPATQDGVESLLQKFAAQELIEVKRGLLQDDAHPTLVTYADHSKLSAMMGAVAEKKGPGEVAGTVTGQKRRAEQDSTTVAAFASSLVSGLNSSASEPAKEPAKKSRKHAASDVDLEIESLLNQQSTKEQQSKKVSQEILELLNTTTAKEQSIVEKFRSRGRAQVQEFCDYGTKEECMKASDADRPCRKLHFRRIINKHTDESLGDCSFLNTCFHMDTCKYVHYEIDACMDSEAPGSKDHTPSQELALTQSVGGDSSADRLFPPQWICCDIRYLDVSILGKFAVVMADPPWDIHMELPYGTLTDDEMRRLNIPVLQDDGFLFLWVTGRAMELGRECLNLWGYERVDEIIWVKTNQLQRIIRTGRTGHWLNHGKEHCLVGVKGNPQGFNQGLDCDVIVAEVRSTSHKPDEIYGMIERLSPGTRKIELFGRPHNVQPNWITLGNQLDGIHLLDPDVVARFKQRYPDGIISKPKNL

SMILES	IC50 [1] [µM]	Activity [5] [%]	also measured
Nc1ncnc2c1ncn2[C@@H]1O[C@H](C(=O)NCCCCN2CCCC2)[C@@H](O)[C@H]1O	8.7	–	–
CC[C@H]1OC(=O)[C@H](C)[C@@H](O[C@H]2C[C@@](C)(OC)[C@@H](O)[C@H](C)O2)[C@H](C)[C@@H](O[C@@H]2O[C@H](C)C[C@H](N(C)C)[C@H]2O)[C@](C)(O)C[C@@H](C)C(=O)[C@H](C)[C@@H](O)[C@]1(C)O [ERYTHROMYCIN]	–	–	Papp [2]: 0.2 10^-6 cm/s; Papp [3]: 17.5 10^-6 cm/s; Ratio [4]: 62.9
Nc1ncnc2c1ncn2[C@@H]1O[C@H](CO)[C@@H](O)[C@H]1O [ADENOSINE]	495	–	–
Nc1ncnc2c1ncn2[C@@H]1O[C@H](C(=O)NCCCNC(=O)c2ccccn2)[C@@H](O)[C@H]1O	332	38	–
Nc1ncnc2c1ncn2[C@@H]1O[C@H](C(=O)NCC2CCNCC2)[C@@H](O)[C@H]1O	> 250	–	–
CN1CCC(NC(=O)[C@H]2O[C@@H](n3cnc4c(N)ncnc43)[C@H](O)[C@@H]2O)CC1	65	18	–
COCCc1ccc(OCC(O)CNC(C)C)cc1 (configuration not stated) [METOPROLOL]	–	–	Papp A→B [2]: 31.4 ×10⁻⁶ cm/s; Papp B→A [3]: 33.3 ×10⁻⁶ cm/s; efflux ratio [4]: 1.1
CNC1CCC(O)(Cn2cnc3c(N)ncnc32)C(O)C1 (configuration not stated)	98	20	–
Nc1ncnc2c1ncn2C[C@H]1OC[C@@H](N)[C@H](O)[C@@H]1O	> 250	107	–
